Consider ten molecules from patent publication US5457030A, “Method and composition for determining antimicrobial susceptibility of the majority clinically significant Gram postitive organism” (MicroScan, Inc., priority 1993, dated 1995).

In brackets after ≈: the same amount, converted by molar mass. Where two headings read alike, the source gives them in different places.

The test system of experiment [1] is Enterococcus faecalis. In words: Minimum inhibitory concentration determination, Example 1 (Table 7). In kind it is cell-based. Here is the method:
(§1) A primary inoculum suspension of a bacterial isolate in saline-pluronic, equivalent to a 0.5 McFarland turbidity standard is prepared. The final inoculum suspension is prepared by diluting a 0.3 ml aliquot of the primary suspension in 25 ml of Rapid Pos Inoculum Broth (B1015-14, Baxter Diagnostics Inc., MicroScan Division, West Sacramento, Calif.). A 115 μl of the final inoculum is added to the growth compartment which contains dried material of fluorogenic enzyme substrates equivalent to 0.023 mM leucine-7-amido-4-methylcoumarin, 0.012 mM phenylalanine-7-amido-4-methylcoumarin and 0.058 mM methylumbelliferyl phosphate and 1.15 mM HEPES buffer at pH 7.0. The final inoculum is also added to a number of compartments containing dried material identical to that in the growth well and different concentrations of an antimicrobial agent. An aliquot of the final inoculum is also added to a compartment, containing only dried HEPES buffer, acting as a control. The inoculated multicompartment device (panel) is inserted in the autoSCAN®-W/A. The fluorescence of each compartment is measured at predetermined times and a Growth Index is calculated by dividing the fluorescence of the growth compartment by that of the negative control compartment.
(§2) If the value of the Growth Index is equal to or exceeds a specified value, the Minimum Inhibitory Concentration for every antimicrobial agent present in the multicompartment device is calculated. Otherwise the device is returned to its position and measured again at the next read time. The read times in this example are 3.5, 4.5, 5.5, 7.0, 8.0, 11.0, and 15.0 hours. For calculation of minimum inhibitory concentration, the percent fluorescence of compartments containing the different concentrations of the antimicrobial agent is calculated by subtracting from each compartment the fluorescence of the control well and dividing it by the delta fluorescence of the growth compartment, obtained by subtracting the fluorescence of the negative control compartment from the fluorescence of the growth compartment. The minimum inhibitory concentration is calculated using a mathematical model specific for each concentration range of the antimicrobial agent. Using a mathematical model based on discriminate functional analysis, the minimum inhibitory concentration of each antimicrobial agent, for the organism tested, can be determined. Utilization of a discriminate function analysis model in microbiological pattern recognition is described in S. Bascomb, Computers in Taxonomy and Systematics, p. 65-102 In T. N. Bryant and J. W. T. Wimpenny (Ed.), Computers in Microbiology, a Practical Approach (IRL Press, Oxford). In an alternative embodiment the minimum inhibitory concentration for each antimicrobial agent for the organism tested can be determined by a breakpoint or threshold method or linear regression analysis. J. McKie, et al., Antimicrobial Agents and Chemotherapy (1980) v. 17, 813-823.
(§3) In Example 1, the growth of Enterococcus faecalis in wells containing specified amounts of antimicrobial agents is estimated by measurement of fluorescence. In Table 6, the percent fluorescence at different concentrations of antimicrobial agents is reported. For example, 0.12, 0.25, 0.5, 1, 2, 4 and 8 μg/mL of ampicillin (Am) were present in the microdilution wells.
In Table 7, the minimum inhibitory concentration for Example 1 are reported.

The test system of experiment [2] is Enterococcus faecalis. In words: Percent fluorescence (growth) in wells containing antimicrobial agents, Example 1 (Table 6). It counts as cell-based. Conditions: for activity at 16 µg/mL: 16 μg/mL. Here is the method:
as §1
^FL growth - ^FL control
as §2, §3
The numbers 105, 105, 67, 7, 6, 5, 6 are percent fluorescence values as calculated in […]. These figures are used to determine susceptibility according to the methods discussed on pages 12 and 13.

[3] abbreviates: Enterococcus faecalis, read-out: percent fluorescence.
Where [4] appears, read: Enterococcus faecalis, read-out: concentration at which organism was found to be susceptible.
Setting [5] is: Enterococcus faecalis, read-out: minimum inhibitory concentration.
Where [6] appears, read: Enterococcus faecalis, Table 7, Example 1, read-out: concentration at which organism was found to be resistant.
Setting [7] is: Table 7, Enterococcus faecalis, Example 1, read-out: minimum inhibitory concentration.
[8] abbreviates: Enterococcus faecalis, 2 μg/mL, read-out: percent fluorescence.
[9] abbreviates: Enterococcus faecalis, 4 μg/mL, read-out: percent fluorescence.
Setting [10] is: Enterococcus faecalis, 8 μg/mL, read-out: percent fluorescence.

Regarding `CN[C@@H]1[C@H](O[C@H]2[C@H](O[C@H]3[C@H](O)[C@@H](O)[C@H](N=C(N)N)[C@@H](O)[C@@H]3N=C(N)N)O[C@@H](C)[C@]2(O)C=O)O[C@@H](CO)[C@H](O)[C@H]1O` [Streptomycin Synergy Screen], in the experiment with Enterococcus faecalis [1] (Table 7, Enterococcus faecalis, Example 1), the “Streptomycin Synergy Screen result in Table 7” value turned out to be 5. Further, the “susceptibility to synergy screen” value in the experiment on Enterococcus faecalis [1] (Table 7, Example 1) was “susceptible”. In the experiment on Enterococcus faecalis [2] (synergy screen well), the percent fluorescence came to 5%.
For the molecule `Cc1onc(-c2ccccc2)c1C(=O)N[C@@H]1C(=O)N2[C@@H]1SC(C)(C)[C@@H]2C(=O)O` [Oxacillin], in the experiment on Enterococcus faecalis [2] (setting [3]), the activity at 0.25 µg/mL was 103%, the activity at 0.5 µg/mL was 98%, the activity at 1 µg/mL was 100% and the activity at 2 µg/mL is 99%. In the experiment with Enterococcus faecalis [2] (setting [3]), the activity at 4 µg/mL is 95% and the activity at 8 µg/mL was 90%.
Regarding `CO[C@H]1/C=C/O[C@@]2(C)Oc3c(C)c(O)c4c(O)c(c(/C=N/N5CCN(C)CC5)c(O)c4c3C2=O)NC(=O)/C(C)=C\C=C\[C@H](C)[C@H](O)[C@@H](C)[C@@H](O)[C@@H](C)[C@H](OC(C)=O)[C@@H]1C` [Rifampin], the MIC in the experiment on Enterococcus faecalis [1] (setting [4]) was found to be 2 µg/mL (≈ 2.43 µM). Also, in the experiment with Enterococcus faecalis [1] (setting [5]), the MIC was determined as 2 µg/mL (≈ 2.43 µM). In addition, in the experiment with Enterococcus faecalis [2] (setting [3]), the activity at 1 µg/mL amounted to 58% and the activity at 2 µg/mL was 21%.
Consider `O=C(O)c1cn(C2CC2)c2cc(N3CCNCC3)c(F)cc2c1=O` [Ciprofloxacin], for which the MIC in the experiment on Enterococcus faecalis [1] (setting [4]) is < 1 µg/mL. Moreover, in the experiment with Enterococcus faecalis [1] (setting [5]), the MIC was < 1 µg/mL. In the experiment on Enterococcus faecalis [2] (setting [3]), the activity at 1 µg/mL was found to be 6%, the activity at 2 µg/mL stood at 6% and the activity at 4 µg/mL is 6%.
For Gentamicin, the percent fluorescence in the experiment on Enterococcus faecalis [2] (1 μg/mL) is 105%; in the experiment on Enterococcus faecalis [2] (2 μg/mL), 99%; with Enterococcus faecalis [2] (4 μg/mL) it was 95%; with Enterococcus faecalis [2] (6 μg/mL) it was 93%; in the experiment on Enterococcus faecalis [2] (8 μg/mL) it was 93%.
As to `CO/N=C(\C(=O)N[C@@H]1C(=O)N2C(C(=O)O)=C(COC(N)=O)CS[C@H]12)c1ccco1` [Cefuroxime], the MIC in the experiment with Enterococcus faecalis [1] (setting [6]) and with Enterococcus faecalis [1] (setting [7]) was > 16 µg/mL in each case. The activity at 2 µg/mL with Enterococcus faecalis [2] (setting [8]) was determined as 85%. Further, in the experiment with Enterococcus faecalis [2] (setting [9]), the activity at 4 µg/mL is 39%. Moreover, the activity at 8 µg/mL with Enterococcus faecalis [2] (setting [10]) came to 15%. For the same molecule, in the experiment with Enterococcus faecalis [2] (setting [3]), the activity at 16 µg/mL turned out to be 10%.
For the molecule `Cn1nnnc1SCC1=C(C(=O)O)N2C(=O)[C@@H](NC(=O)[C@H](O)c3ccccc3)[C@H]2SC1` [Cefamandole], the MIC with Enterococcus faecalis [1] (setting [6]) and in the experiment with Enterococcus faecalis [1] (setting [7]) was > 16 µg/mL in each case. Moreover, the activity at 8 µg/mL in the experiment on Enterococcus faecalis [2] (setting [10]) was 104%. Moreover, the activity at 16 µg/mL in the experiment on Enterococcus faecalis [2] (setting [3]) worked out at 105%.
`CO/N=C(\C(=O)N[C@@H]1C(=O)N2C(C(=O)O)=C(CSc3nc(=O)c(=O)[nH]n3C)CS[C@H]12)c1csc(N)n1` [Ceftriaxone]: the activity at 4 µg/mL in the experiment with Enterococcus faecalis [2] (setting [9]) was determined as 15%. In addition, the activity at 8 µg/mL with Enterococcus faecalis [2] (setting [10]) turned out to be 9%. Further, the activity at 16 µg/mL in the experiment with Enterococcus faecalis [2] (setting [3]) is 8%. In addition, the activity at 32 µg/mL in the experiment with Enterococcus faecalis [2] (Enterococcus faecalis, 32 μg/mL) stood at 7%.
`CCn1cc(C(=O)O)c(=O)c2cc(F)c(N3CCNCC3)cc21` [Norfloxacin]: the MIC was < 4 µg/mL in the experiment with Enterococcus faecalis [1] (Enterococcus faecalis, Table 7, Example 1, read-out: concentration at which organism was found to be susceptible) and < 4 µg/mL in the experiment on Enterococcus faecalis [1] (setting [7]). Besides, the activity at 4 µg/mL in the experiment with Enterococcus faecalis [2] (setting [9]) worked out at 6%. Besides, in the experiment on Enterococcus faecalis [2] (setting [10]), the activity at 8 µg/mL was 6%.
`CCC[C@@H]1C[C@@H](C(=O)N[C@@H]([C@H]2O[C@H](SC)[C@H](O)[C@@H](O)[C@H]2O)[C@H](C)Cl)N(C)C1` [Clindaimycin, Clindamycin]: the MIC in the experiment on Enterococcus faecalis [1] (setting [6]) and with Enterococcus faecalis [1] (setting [7]) was > 2 µg/mL throughout. In addition, the activity at 1 µg/mL with Enterococcus faecalis [2] (Enterococcus faecalis, 1 μg/mL, read-out: percent fluorescence) was determined as 75%. Besides, the activity at 2 µg/mL in the experiment with Enterococcus faecalis [2] (setting [8]) worked out at 71%. In the experiment with Enterococcus faecalis [2] (Enterococcus faecalis, 5 μg/mL (printed 5Cd)), the activity at 5 µg/mL is 83%. In addition, the activity at 0.25 µg/mL with Enterococcus faecalis [2] (Enterococcus faecalis, .25 μg/mL, read-out: percent fluorescence) worked out at 88%.
